Experimental data: patent US20040034021A1, “Intravenous rifalazil formulation and methods of use thereof” (priority 2002, published 2004)
Values after ≈ are worked out from the molar mass of the structure shown.

How the values were obtained:
S. aureus = assay: MIC by broth microdilution method; format: cell-based; details: Staphylococcus aureus, CAMH broth, vehicle as in Example 2, 35-37° C., 20-24 hours
Description: The MIC (minimum inhibitory concentration) of rifalazil against S. aureus was determined by the broth microdilution method. A vehicle prepared as described in Example 2 was diluted in Cation Adjusted Mueller-Hinton (CAMH) broth to create working solutions that were 4× the maximum concentration to be tested on each microtiter plate. The 4× working solutions were added to the wells of the 96 well microtiter plate and serially diluted two-fold across 11 wells into CAMH.
To prepare the test strain inoculum, 3-5 colonies of S. aureus from a pure 18-24 hour culture grown on a primary agar plate were emulsified into demineralized water and adjusted to a 0.5 McFarland turbidity standard using a calibrated nephelometer. This suspension was then diluted further (1:100) into CAMH broth to yield an inoculum suspension containing approximately 10^6 CFU/ml. Aliquots of the inoculum suspension were added to the rifalazil-containing wells to yield a final concentration in the well of 1-8×10^5 CFU/ml. The microtiter plates were incubated at 35-37° C. for 20-24 hours. The MIC was read as the lowest concentration of the compound that inhibits visible growth.

[1] = stability against hydrolytic degradation to des-acetyl rifalazil (HPLC); format: physicochemical
Description: Rifalazil solutions containing the micelle-forming excipient PEG-35 castor oil, prepared as described in Example 2, and without a micelle-forming excipient (15% ethanol, phosphate buffer pH=7.6, 0.9% NaCl) were monitored for stability against the hydrolytic degradation of rifalazil at temperatures of 25° C., 40° C., 50° C., and 60° C. (see FIGS. 7 and 8). The degradation was monitored for several days by HPLC for the disappearance of rifalazil or the appearance of des-acetyl rifalazil, the degradation product that results from the hydrolysis of rifalazil.

[2] = solubility of rifalazil in aqueous test solutions (UV-Vis); format: physicochemical
Description: In order to determine its solubility, to a vial containing solid rifalazil was added a volume of aqueous test solution. The vial was capped and sonicated for about an hour and the remaining undissolved solids were left to settle overnight. The vial was then vortexed for 1 minute, sonicated for another 30 minutes, and centrifuged for 1 hour at 3500 RPM. The supernatent was separated from undissolved rifalazil. The concentration of rifalazil in the test solution was determined by UV-Vis absorbance using a suitable spectrophotometer. Using this method, the solubility of rifalazil was determined as a function of pH (see FIG. 1); in PEG 400-water, propylene glycol-water, and ethanol-water mixtures (see FIG. 2); in Tween-40-water and Tween-80-water mixtures (see FIG. 3); in dodecyltrimethylammonium bromide-water, sodium chenodeoxycholate-water, sodium Octylsulfate-water, sodium deoxycholate-water, sodium cholate-water, and sodium dodecylsulfate-water mixtures (see FIG. 4); in sodium dodecylsulfate- water mixtures at pH 5.4 and 7.4 (see FIG. 5); and in PEG-35 castor oil-water mixtures (see FIG. 6).

What does the source list for `CO[C@H]1/C=C/O[C@@]2(C)Oc3c(C)c(O)c4c(=O)c(c5oc6cc(N7CCN(CC(C)C)CC7)cc(O)c6nc-5c4c3C2=O)NC(=O)/C(C)=C\C=C\[C@H](C)[C@H](O)[C@@H](C)[C@@H](O)[C@@H](C)[C@H](OC(C)=O)[C@@H]1C` [Rifalazil, rifalazil]?
MIC (S. aureus): 0.015 µg/mL (≈ 0.0159 µM); effect of micelle-forming excipient on hydrolytic degradation of rifalazil ([1]; PEG-35 castor oil solution of Example 2 vs 15% ethanol, phosphate buffer pH 7.6, 0.9% NaCl, 25-60° C. (FIGS. 7 and 8)): inhibits the hydrolytic degradation; hydrolytic degradation of rifalazil ([1]; aqueous environments under ambient conditions, no micelle-forming excipient (FIG. 8)): occurs readily; ratio of 100 μg/mL (typical low IV dosage concentration) to solubility of the drug in water ([2]; water at pH 7 (FIG. 1)): 5,000 times; solubility in water ([2]; water at physiological pH): virtually insoluble
